# Reference: patent US20170112941A1, “VE-CADHERIN BINDING BIOCONJUGATE” (Symic IP, LLC, priority 2015, published 2017)
# Ends that are not written are not given here. * marks the point of attachment. NHNH2 = NN*
# How the values were obtained:
# [1] = molecular target: T1, Recombinant VE cadherin/Fc chimera (Homo sapiens, UniProt P33151); assay: VE-Cadherin Binding Assay (plate ELISA with biotinylated molecule, streptavidin-HRP)
# T1 construct: purchased R&D systems 938-VC
# Protocol: Recombinant VE cadherin/Fc chimera (R&D systems, Prod#938-VC) was prepared in 1× Phosphate Buffered Saline (PBS, Gibco, pH 7.4) at 5 μg/mL. 50 μL of this solution was incubated in each well of Costar high bind plate (Prod #9018) overnight at 4° C. The plate was washed three times with PBS. VE-cadherin coated wells were blocked using 0.5% non-fat dry milk and 50 μg/mL heparin sodium in 1×PBS. Blocked plates were then treated with a concentration gradient of eHep-Bbeta (biotinylated) molecule (eHep-Bbeta, 1:8:50). The eHep-Bbeta was dissolved in Tris-NaCl—CaCl2 at 1 mg/mL, serial dilution (1:3) 50 μL 2 hour RT. At the end of the incubation plate was washed three times with PBS.
# Ultra-Streptavidin HRP (ThermoFisher Scientific, Prod# N504) was diluted 1:500 using 1% BSA, 1×PBS and 0.05% tween was used to detect the biotinylated molecule bound to rh VE-cadherin coated plates. 100 μL of streptavidin solution was incubated in each well for 20 minutes at RT. The plate was washed three times with 1×PBS. 100 μL of TMB substrate solution (Abcam, slowest kinetic rate) was added to each well and developed for 20 minutes in the dark. 25 μL of stop solution (0.64 M H2SO4 in water) was added to stop the reaction and absorbance was read using Molecular Device i3 at 450 nm.
# This assay may be used to determine the binding affinity of the bioconjugates as well as the peptides alone.
# HUVECs = assay: HUVEC culture, thrombin challenge, pMLC/phalloidin fluorescence imaging; type: cell-based, human; conditions: thrombin 1 U/mL, eHep-Bbeta 100 μg/mL, 10 minutes at 37° C., FIG. 3
# Protocol: HUVECs were grown to confluence in 24-well tissue culture treated plates (10000 cells per cm^2) for 3 days. The cells were cultured in vascular basal medium (ATCC, prod# PCS-100-030) supplemented with 0.2% bovine brain extract (BBE), 10 mM L-glutamine, 5 U/mL heparin sodium, 1 μg/mL hydrocortisone hemisuccinate, 50 μg/mL ascorbic acid, and 20% fetal bovine serum. The wells were washed three times with 1× phosphate buffered saline (PBS), and then were treated with medium alone, medium supplemented with thrombin at 1 U/mL, medium supplemented with thrombin at 1 U/mL and eHep-Bbeta at 100 μg/mL, medium supplemented with thrombin at 1 U/mL and heparin at 100 μg/mL for 10 minutes at 37° C. The wells were then washed three times with 1×PBS. Each wash was for 5 minutes. The cells were then fixed using 4% formalin in 1×PBS for 15 minutes at room temperature, washed four times with 1×PBS (each wash was for 10 minutes). Blocking buffer containing 5% normal goat serum, and 0.3% Triton-X 100 in 1×PBS was prepared and 500 μL was added to each well. Blocking was done for 1 hour at room temperature. Antibody dilution buffer containing 1% BSA, and 0.3% Triton-X 100 in 1×PBS was prepared. 200 μL of Rabbit anti pMLC diluted 1:50 using antibody dilution buffer was added to each well and incubated overnight at 4° C. […] The wells were then imaged using an EVOS fluorescence microscope.
# [2] = tested on: acute renal ischemic model; assay: Renal Ischemia Reperfusion (acute renal ischemic model); type: in vivo; conditions: rat
# Protocol: Kidney damage was assessed by measuring serum creatinine levels 24 hours post procedure, and by creatinine clearance measured at 24 hours and 7 days post procedure. In this study, the ischemia time was reduced here to produce a more moderate injury, and the bioconjugate was delivered to the femoral vein, rather than directly to the renal artery, in order to reduce procedure time. See, Verma, et al. “Renal Endothelial Injury and Microvascular Dysfunction in Acute Kidney Injury.” Seminars in nephrology. Vol. 35. No. 1. WB Saunders, 2015 and Urbschat, et al. “Combined peri-ischemic administration of BP 15-42 in treating ischemia reperfusion injury of the mouse kidney.” Microvascular research 101 (2015): 48-54. All test articles were formulated in 1×PBS at 5 mg/mL and 500 μL were delivered for an approximate dose of 10 mg/kg. 1.4. […] Animals were closed and monitored during recovery for 24 hours. • 1.5.8. […] If creatinine clearance was positive in the positive control or test article at 7 days, the animal was survived until day 28, at which point creatinine clearance was again be measured. […] Serum creatinine was measured in each animal at baseline (prior to procedure) and 24 hours post-procedure. • 1.7. Creatinine clearance was measured at 1 and 7 days post procedure. • 1.8. […] Serum creatinine and creatinine clearance levels measured at 24 hours was compared between groups using an unpaired t-test. […]
# T1 sequence (P33151 with tags, fused parts or gaps limits assumed): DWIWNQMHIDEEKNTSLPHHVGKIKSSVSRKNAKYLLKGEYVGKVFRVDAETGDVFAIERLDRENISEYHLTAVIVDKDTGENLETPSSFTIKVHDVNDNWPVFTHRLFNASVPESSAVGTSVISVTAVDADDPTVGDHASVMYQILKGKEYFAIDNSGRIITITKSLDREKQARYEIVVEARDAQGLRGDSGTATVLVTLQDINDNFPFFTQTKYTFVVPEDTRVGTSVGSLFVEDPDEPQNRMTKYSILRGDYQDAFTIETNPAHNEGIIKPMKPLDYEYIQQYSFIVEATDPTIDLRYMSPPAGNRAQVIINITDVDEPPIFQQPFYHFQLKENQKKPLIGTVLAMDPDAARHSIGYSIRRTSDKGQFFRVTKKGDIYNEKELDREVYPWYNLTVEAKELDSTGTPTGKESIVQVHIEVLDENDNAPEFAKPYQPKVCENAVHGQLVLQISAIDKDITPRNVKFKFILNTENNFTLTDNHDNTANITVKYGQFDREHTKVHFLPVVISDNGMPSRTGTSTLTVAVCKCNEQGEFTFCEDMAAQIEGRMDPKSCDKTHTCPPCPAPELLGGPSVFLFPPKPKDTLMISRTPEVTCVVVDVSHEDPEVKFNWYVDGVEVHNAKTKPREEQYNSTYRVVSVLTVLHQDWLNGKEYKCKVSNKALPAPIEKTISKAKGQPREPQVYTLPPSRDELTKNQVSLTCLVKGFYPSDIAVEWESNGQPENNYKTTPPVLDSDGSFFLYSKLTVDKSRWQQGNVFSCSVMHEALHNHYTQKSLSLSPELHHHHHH
substance,measurement,setting,value
"eHep-Bbeta: Heparin (MWavg 16 kDa) coupled by EDC to Bbeta peptide GHRPLDKKREEAPSLRPAPPPISGGGYR(GSG)-hydrazide; about 3.7 peptides/heparin (GHRPLDKKREEAPSLRPAPPPISGGGYRGSG-NHNH2; also: coupled by EDC to heparin (MWavg 16 kDa), about 3.7 peptides/heparin, attachment site not given here)",effect of Tris-NaCl-CaCl2 buffer on molecule binding to VE-cadherin,[1]; Tris-NaCl-CaCl2 buffer,enhances molecule binding significantly
same,binding to VE-cadherin,"[1]; biotinylated eHep-Bbeta (1:8:50), 1 mg/mL in Tris-NaCl-CaCl2, serial dilution 1:3, 2 hour RT, absorbance 450 nm, FIG. 2",binds to VE-cadherin in a dose dependent manner
same,endothelial cell barrier function,HUVECs,preserves endothelial cell barrier function
same,"protection from renal damage upon reperfusion, compared with active control (peptide alone)","[2]; 30 minutes ischemia, approximate dose 10 mg/kg into femoral vein immediately after clamp removal, FIG. 4",protects from renal damage upon reperfusion better than active control (peptide alone)
same,"kidney damage (serum creatinine 24 hours, creatinine clearance 24 hours and 7 days post procedure)","[2]; treatment immediately following renal reperfusion, approximate dose 10 mg/kg, femoral vein",inhibits kidney damage
